Measurements as given in patent US20230032216A1, “INTERLEUKIN-4-INDUCED GENE 1 (IL4I1) AND RESPECTIVE METABOLITES AS BIOMARKERS FOR CANCER” (DEUTSCHES KREBSFORSCHUNGSZENTRUM STIFTUNG DES ÖFFENTLICHEN …, priority 2019, published 2023).
Each block holds one compound with its values, some of them ahead of it.

Columns and labels:
[1] = Conversion of I3P to KynA under cell-free conditions; assay type: physicochemical
U-87MG cells = assay: Wound healing (migration) assay with Ctrl and IL4I1-expressing glioblastoma cells; assay type: cell-based, human; details: ectopically IL4I1-expressing U-87MG cells, 1 μM SR1, FIG. 3C
Protocol: Cells were seeded in 2-well cell culture inserts (ibidi, 80209) placed in 24-well plates. For U-87MG cells, as well as Ctrl and IL4I1-expressing U-87MG cells, 3×10^4 cells in 100 μL medium per well of cell culture insert were seeded. In the case of Ctrl and IL4I1-expressing U-251MG cells, 4×10^4 in 100 μL medium per well of cell culture insert were seeded. Cells were incubated for 16 h, inserts were removed and 1 mL of complete DMEM medium was added to each well of the plate. Cell migration was monitored by taking pictures at indicated time points, until gap (500 μm+/−100 μm) was covered by cells. In the case where U-87MG cells were treated with I3P or SR1, treatments were applied at the time of seeding the cells in the 2 well cell culture inserts. In addition, after 16 h incubation time and insert removal, 1 mL of complete DMEM medium containing treatments was applied to cells and kept throughout the assay. For each independent experiment, 3 pictures per well were taken and each condition was carried out at least in 3 wells. Pictures were taken with an ECLIPSE Ti-E/B inverted microscope (Nikon) with the 4×objective and using the NIS Elements software version 4.13.04. Pictures were analyzed with TScratch software version 1.0 (Geback et al., 2009). Cell migration was assessed by calculating the percentage of covered area for each time point normalized to the area at the 0 h time point.

advanced melanoma [2] = details: epacadostat in combination with the anti-PD-1 mAb pembrolizumab, advanced melanoma (Long et al., 2019); cited from earlier work
advanced melanoma [3] = assay: RNA-seq of advanced melanoma patients before and on nivolumab treatment (Riaz et al., GSE91061); assay type: in vivo, human
Source text: RNA-seq datasets-Raw counts and metadata were downloaded from GEO using GEOquery (Davis and Meltzer, 2007). The harmonized HT-Seq counts and Fragments Per Kilobase of transcript per Million mapped reads (FPKM) of TCGA datasets were downloaded using TCGAbiolinks (Colaprico et al., 2016) from Genomic Data Commons (GDC) (https://gdc.cancer.gov/), and only patients with the identifier “primary tumor” were retained, with the exception of melanoma that was split into datasets for primary and metastatic cohorts. The FPKM values were converted to transcripts per million (TPMs) (Li and Dewey, 2011). TPM data of normal tissues were downloaded from the Genotype-Tissue Expression (GTEx) dataset (https://gtexportal.org/home/). All TPM values were log 2 transformed. Raw counts of the Riaz et al. […] (Riaz et al., 2017) advanced melanoma dataset were downloaded from https://github.com/riazn/bms038_analysis, and based on principle component analysis one outlier patient pair was removed (Pt-84). RNA-seq counts were saved as DGELists (Robinson et al., 2010). Genes with less than 10 counts were filtered followed by trimmed mean of M values (TMM) normalization (Robinson and Oshlack, 2010) and variance modeling using voom (Law et al., 2014).

[4] = advanced melanoma patients, before vs after nivolumab, FIG. 8C, re-analysis of Riaz et al. 2017

Formation of KynA from I3P ([1]; data not shown): formed spontaneously | Formation of KynA from I3P in the presence of H2O2 ([1]; with H2O2, data not shown): enhanced
Compound: O=C(O)C(=O)Cc1c[nH]c2ccccc12 [I3P, Indole-3-pyruvic acid]

Compound: CC(C)n1cnc2c(NCCc3ccc(O)cc3)nc(-c3csc4ccccc34)nc21 [SR1]
IL4I1-mediated motility of AHR-proficient cells (U-87MG cells): reversed

Compound: NS(=O)(=O)NCCNc1nonc1C(=NO)Nc1ccc(F)c(Br)c1 [epacadostat]
Clinical benefit in phase III trial (advanced melanoma [2]): failed

Compound: nivolumab: anti-PD-1 monoclonal antibody (mAb) nivolumab
AHR activation (AHR signature) (advanced melanoma [3]; advanced melanoma patients after nivolumab, FIG. 8D): resulted in AHR activation | Hallmark of cancer gene set enrichment (advanced melanoma [3]; advanced melanoma patients before vs on Nivolumab therapy, FIG. 10): strong upregulation of inflammatory hallmark gene signatures | IDO1 expression (advanced melanoma [3]; [4]): induced | IL4I1 expression (advanced melanoma [3]; [4]): induced | IL4I1 expression (advanced melanoma [3]; advanced melanoma patients, before vs after nivolumab, FIG. 8C, re-analysis of Riaz et al. 2017, listed as Nivolumab): higher expression of IL4I1 | IL4I1 expression in ipilimumab-naïve patients (advanced melanoma [3]; ipilimumab-naïve advanced melanoma patients, response to nivolumab, FIG. 8E): significant IL4I1 increase
